Source: patent US9682928B2 (NeuroPro Therapeutics, Inc., priority 2009, dated 2017)
“Also recorded” adds a separate entry of the source.

Key:
Male Rj: NMRI mice = experiment: Formalin paw test (late phase) in the mouse; assay type: in vivo; settings: for Antinociception compared to gabapentin (584 μmol/kg; 100 mg/kg): late phase, at highest two doses (NTP-2014, NTP-2024) or highest dose (NTP-2026, Bumetanide)
How it was run: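 Male NMRI mice received an intraplantar injection of 5% formalin (25 μl) into the left hind paw. Licking of the injected paw was scored at 1-min intervals from 15 to 50 min, blind, with 10 mice per group. Treated groups were compared with vehicle by Mann-Whitney U test; gabapentin 100 mg/kg i.p. served as reference.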

Rat = experiment: MES (Rat); assay type: in vivo
[1] = Diuresis in rat (urine volume, sodium and potassium excretion); assay type: in vivo; settings: for Diuresis as measured by increased urine output and Na+/K+ excretion: rat, through 8 hours post-dose
Protocol: (§1) The animals were fasted overnight prior to dosing and had no access to drinking water prior to any pretreatment. Food and water were withheld through the terminal sample collection or for the first 6 hours of blood sample collection, where applicable. Prior to test article administration all animals were pretreated with a single IP dose of PBx. At approximately 5 to 6 minutes prior to dosing all animals received a single oral (PO) gavage dose of 0.9% Sodium Chloride for Injection, USP, at a dose volume of 15 mL/kg. The vehicle, DMSO, and the test articles, NTP-2024 and NTP-2006, were administered via a single IP dose at a dose volume of 1 mL/kg. Cumulative urine volume, sodium excretion, and potassium excretion graphs are illustrated in FIGS. 27, 28, and 29.
as §1, with “Animals” for “The animals”, “PBX.” for “PBx.”, “mL/g.” for “mL/kg.”, “compounds (e.g., NTP-2014)” for “articles, NTP-2024 and NTP-2006,”, “mL/kg.” for “mL/kg. Cumulative urine volume, sodium excretion, and potassium excretion graphs are illustrated in FIGS. 27, 28, and 29.”
as §1, with “Animals” for “The animals”, “0.15” for “15”, “FIG. 27 illustrates cumulative” for “Cumulative”, “volume.” for “volume, sodium excretion, and potassium excretion graphs are illustrated in FIGS. 27, 28, and 29.”
as §1, with “PBX.” for “PBx.”, “FIG. 28 illustrates cumulative” for “Cumulative urine volume,”, “excretion.” for “excretion, and potassium excretion graphs are illustrated in FIGS. 27, 28, and 29.”
as §1, with “PBX.” for “PBx.”, “FIG. 29 illustrates cumulative” for “Cumulative urine volume, sodium excretion, and”, “excretion.” for “excretion graphs are illustrated in FIGS. 27, 28, and 29.”

Male CD-1 mice = experiment: 52° C. warm water tail-flick test (acute nociceptive study); assay type: in vivo, mouse; settings: for Activity in tail-flick test: all doses starting at 32 mg/kg (NTP-2014) or 56 mg/kg (NTP-2026, NTP-2024); for % Antinociception: A50 not determined
Description: Subjects: Male CD-1 (25-35 g, Charles River) were used for all studies. Mice were housed in groups of five in Plexiglas chambers with food and water available ad libitum. All animals were maintained on a 12 hr light/dark cycle (lights on at 7:00 AM) in a temperature- and humidity-controlled animal colony. The health status of the animals used in this study were examined on arrival. Only animals in good health were acclimatized to laboratory conditions and used in the study. The acclimation period to the vivarium was a minimum of 7 days. All animal experiments were performed under an approved protocol in accordance with institutional guidelines and in accordance with the Guide for the Care and Use of Laboratory Animals as adopted and promulgated by the National Institutes of Health.
Behavioral Testing: Efficacy of the test compounds were assessed using the 52° C. warm water tail-flick test. The latency to the first sign of a rapid tail-flick was taken as the behavioral endpoint (Jannsen, et al. 1963). Each mouse was first tested for baseline latency by immersing its tail in the water and recording the time to response. Mice not responding within 5 seconds were excluded from further testing. Test compounds were then injected and the mice were rested for thermal latencies at 10, 20, 30, 45, 60, 90, 120 and 180 minutes post-injection (if a drug effect dropped below 20% for the group average then the testing was halted for that group). Antinociception was calculated by the following formula: % Antinociception=100×(test latency−control latency)/(10-control latency). A maximum score was assigned (100%) to animals not responding within 10 seconds to avoid tissue damage.
Preparation of Test Materials: NTP-2014 (m.w. 420.52 for free base; lot number: 004JXS047) was dissolved in 0.2% hydroxypropylmethylcellulose (HPMC) in physiological saline to yield final concentrations of between 3.2 and 10 mg/ml (pH ˜7.4). NTP-2024 (m.w. 433.52 for free base; lot number: 024DGM048) was dissolved in 0.2% HPMC in physiological saline to yield final concentrations of between 5.6 and 18 mg/ml (pH ˜7.4). NTP-2026 (m.w. 462.61 for free base; lot number: 002JRA064) was first dissolved in 100% ETOH (10× solution) and then this stock solution was diluted to final concentrations of 5.6-10 mg/ml using 0.2% HPMC in physiological saline (pH ˜7.4). Final ETOH concentration was approximately 10%. Tween 80 (1-2 drops) was added to all solutions to aid in solubilization of compounds.
All groups contained n=8-10 mice.

[2] = i.p. 30 minutes before the test, 50 μmol/kg (NTP-2006 23.9, NTP-2024 21.7, NTP-1007 19.3, NTP-2014 21, NTP-2026 23.1 mg/kg)
[3] = i.p., 250 μmol/kg (NTP-2006 119, NTP-2024 108, NTP-1007 96.5, NTP-2014 105, NTP-2026 116 mg/kg)
[4] = i.p., 500 μmol/kg (NTP-2006 239, NTP-2024 217, NTP-1007 193, NTP-2014 210, NTP-2026 231 mg/kg)

Row | SMILES | Decrease in pain, Formalin Paw Test (Mice) - Late Phase (Male Rj: NMRI mice; at 50, 250, 500 μmol/kg) | Antinociception compared to gabapentin (584 μmol/kg; 100 mg/kg) (Male Rj: NMRI mice) | Licking Score (15 to 50 minutes post-formalin injection) % Change from Control (Male Rj: NMRI mice; [2]) | Licking Score (15 to 50 minutes post-formalin injection) % Change from Control (Male Rj: NMRI mice; [3]) [%] | Licking Score (15 to 50 minutes post-formalin injection) % Change from Control (Male Rj: NMRI mice; [4]) [%] | Diuresis as measured by increased urine output and Na+/K+ excretion [1] | Activity in tail-flick test (Male CD-1 mice; mice) | Decrease in pain, Formalin Paw Test (Mice) - Late Phase (Male Rj: NMRI mice; at 250, 500 μmol/kg) | further results
1 | CCCCNc1cc(C(=O)O)cc(S(N)(=O)=O)c1Oc1ccccc1 [Bumetanide, reference compound] | Significant decrease in pain at 50 (p < 0.05), 250 (p < 0.01), | 500 (p < 0.001 ) μmol/kg; 18.2, 91.1, 182 mg/kg; better |  |  |  |  |  |  | Activity in MES (Rat; doses up to 200 mg/kg, no metabolic inhibitor coadministered): No activity at doses up; Excretion of urine, sodium and potassium (FIG. 33) ([1]; bumetanide PO 30 mg/kg + PBx): substantial excretion; Diuresis in rat ([1]; pre-treatment with inhibitor): diuresis evident
2 | CCCCN(CCCC)c1cc(C(=O)O)cc(S(N)(=O)=O)c1Oc1ccccc1 [NTP-2014, 3-Aminosulfonyl-5-N,N-dibutylamino-4-phenoxybenzoic acid] | Significant decrease in pain at 50 (p < 0.05), 250 | much better than gabapentin (584 μmol/kg; 100 mg/kg) | −38% | −99 | −90 | No diuresis as measured by increased urine output and Na+/K+ | effective analgesic effects; also recorded: Significant activity in tail- |  | Significant adverse events (Rat; 100 mg/kg): seen at 300 mg/kg. No; Toxic effects (Rat; 300 mg/kg): mg/kg. Toxic effects; Rats with complete suppression (Rat; at 4 hr, 100 mg/kg): at 4 hr in 2/3 rats at 100; Urine output, sodium excretion and potassium excretion (FIG. 33) ([1]; NTP-2014 at 10, 50 or 100 mg/kg, PBx pretreated): does not differ appreciably from the vehicle control; also recorded: does not increase; also recorded: did not increase; % anti-nociception relative to high dose morphine (Male CD-1 mice; tail-flick test, mice, without behavioral observations): nociception equal to high
3 | CCCCNc1cc(C(=O)NN2CCOCC2)cc(S(N)(=O)=O)c1Oc1ccccc1 [NTP-2024, N-Morpholinyl 3-Aminosulfonyl-5-N-butylamino-4-phenoxybenzamide] |  | (p < 0.05) μmol/kg; 108, 217 mg/kg; slightly less | −1% | −51 | −41 |  | Significant activity in tail- | Significant decrease in pain at 250 (p < 0.01), 500 | Licking Score % Pain Decrease (Male Rj: NMRI mice; 50 μmol/kg i.p.): 1%; Licking Score % Pain Decrease (Male Rj: NMRI mice; 250 μmol/kg i.p.): 51%; Licking Score % Pain Decrease (Male Rj: NMRI mice; 500 μmol/kg i.p.): 41%; Anti-inflammatory and analgesic effects in formalin paw test (FIG. 16) (Male Rj: NMRI mice; 50, 250, 500 μmole/kg): show anti-inflammatory and analgesic effects; % Antinociception (Male CD-1 mice; 180 mg/kg): ~48%
4 | CCCCNc1cc(C(=O)N(C)CCCN(C)C)cc(S(N)(=O)=O)c1Oc1ccccc1 [NTP-2026, N-(3-(Dimethylamino)propyl)-N-methyl 3-Aminosulfonyl-5-N-butylamino-4-phenoxybenzamide] |  |  | no effects | −49 | −82 | No diuresis as measured by increased urine output and Na+/K+ | Significant activity in tail- | Significant decrease in pain at 250 (p < 0.01), 500 | Activity in MES (Rat; 30, 100, 330 mg/kg): No activity at 30, 100,; % Antinociception (Male CD-1 mice; 56 mg/kg): ~25%
